Results published in PubChem BioAssay (NCI).
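The compound was tested at five concentrations on cells cultured in 96-well plates, with a 48-hour exposure period. The concentration for full growth arrest is given as TGI.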

Experiments:
Assay in all cases: inhibition of tumour cell growth, NCI panel, 48 h
786-0 renal = test system: 786-0 renal
A498 renal = test system: A498 renal
A549 NSCLC = test system: A549 NSCLC
ACHN renal = test system: ACHN renal
CAKI-1 renal = test system: CAKI-1 renal
CCRF-CEM leukemia = test system: CCRF-CEM leukemia
DLD-1 colon = test system: DLD-1 colon
DMS 273 small cell lung = test system: DMS 273 small cell lung
EKVX NSCLC = test system: EKVX NSCLC
HCC-2998 colon = test system: HCC-2998 colon
HCT-116 colon = test system: HCT-116 colon
HCT-15 colon = test system: HCT-15 colon
HL-60(TB) leukemia = test system: HL-60(TB) leukemia
HOP-62 NSCLC = test system: HOP-62 NSCLC
HOP-92 NSCLC = test system: HOP-92 NSCLC
HT29 colon = test system: HT29 colon
IGROV1 ovarian = test system: IGROV1 ovarian
K-562 leukemia = test system: K-562 leukemia
KM12 colon = test system: KM12 colon
KM20L2 colon = test system: KM20L2 colon
LOX IMVI melanoma = test system: LOX IMVI melanoma
LXFL 529 NSCLC = test system: LXFL 529 NSCLC
M14 melanoma = test system: M14 melanoma
M19-MEL melanoma = test system: M19-MEL melanoma
MALME-3M melanoma = test system: MALME-3M melanoma
MOLT-4 leukemia = test system: MOLT-4 leukemia
NCI-H226 lung = test system: NCI-H226 lung
NCI-H23 lung = test system: NCI-H23 lung
NCI-H460 lung = test system: NCI-H460 lung
NCI-H522 lung = test system: NCI-H522 lung
OVCAR-3 ovarian = test system: OVCAR-3 ovarian
OVCAR-5 ovarian = test system: OVCAR-5 ovarian
OVCAR-8 ovarian = test system: OVCAR-8 ovarian
RPMI-8226 leukemia = test system: RPMI-8226 leukemia
RXF 393 renal = test system: RXF 393 renal
SF-268 CNS = test system: SF-268 CNS
SF-295 CNS = test system: SF-295 CNS
SF-539 CNS = test system: SF-539 CNS
SK-MEL-2 melanoma = test system: SK-MEL-2 melanoma
SK-MEL-28 melanoma = test system: SK-MEL-28 melanoma
SK-MEL-5 melanoma = test system: SK-MEL-5 melanoma
SN12C renal = test system: SN12C renal
SNB-19 CNS = test system: SNB-19 CNS
SNB-75 CNS = test system: SNB-75 CNS
SNB-78 CNS = test system: SNB-78 CNS
SR leukemia = test system: SR leukemia
SW-620 colon = test system: SW-620 colon
TK-10 renal = test system: TK-10 renal
U251 CNS = test system: U251 CNS
UACC-257 melanoma = test system: UACC-257 melanoma
UACC-62 melanoma = test system: UACC-62 melanoma
UO-31 renal = test system: UO-31 renal
XF 498 CNS = test system: XF 498 CNS
COLO 205 colon = test system: COLO 205 colon
OVCAR-4 ovarian = test system: OVCAR-4 ovarian
SK-OV-3 ovarian = test system: SK-OV-3 ovarian

## COc1cc2c3cc1Oc1c(OC)c(OC)cc4c1[C@@H](Cc1ccc(O)c(c1)Oc1ccc(cc1)C[C@@H]3N(C)CC2)N(C)CC4
786-0 renal
  TGI: 25.6 µM
A498 renal
  TGI: 38.5 µM
A549 NSCLC
  TGI: 62 µM
ACHN renal
  TGI: 38.1 µM
CAKI-1 renal
  TGI: 19.7 µM
CCRF-CEM leukemia
  TGI: 45.2 µM
DLD-1 colon
  TGI: 56.3 µM
DMS 273 small cell lung
  TGI: 34 µM
EKVX NSCLC
  TGI: 31.3 µM
HCC-2998 colon
  TGI: 20.4 µM
HCT-116 colon
  TGI: 21.1 µM
HCT-15 colon
  TGI: 27.2 µM
HL-60(TB) leukemia
  TGI: 26.4 µM
HOP-62 NSCLC
  TGI: 36 µM
HOP-92 NSCLC
  TGI: 24.7 µM
HT29 colon
  TGI: 24.1 µM
IGROV1 ovarian
  TGI: 36.9 µM
K-562 leukemia
  TGI: 33.5 µM
KM12 colon
  TGI: 27.7 µM
KM20L2 colon
  TGI: 21.1 µM
LOX IMVI melanoma
  TGI: 34.6 µM
LXFL 529 NSCLC
  TGI: 24.8 µM
M14 melanoma
  TGI: 16.7 µM
M19-MEL melanoma
  TGI: 26.2 µM
MALME-3M melanoma
  TGI: 31.7 µM
MOLT-4 leukemia
  TGI: 34.2 µM
NCI-H226 lung
  TGI: 44.8 µM
NCI-H23 lung
  TGI: 61.3 µM
NCI-H460 lung
  TGI: 75.6 µM
NCI-H522 lung
  TGI: 20.3 µM
OVCAR-3 ovarian
  TGI: 29.5 µM
OVCAR-5 ovarian
  TGI: > 100 µM
OVCAR-8 ovarian
  TGI: 31.7 µM
RPMI-8226 leukemia
  TGI: 41.5 µM
RXF 393 renal
  TGI: 25.9 µM
SF-268 CNS
  TGI: 45.6 µM
SF-295 CNS
  TGI: 30.9 µM
SF-539 CNS
  TGI: 13.1 µM
SK-MEL-2 melanoma
  TGI: 30.9 µM
SK-MEL-28 melanoma
  TGI: 29.5 µM
SK-MEL-5 melanoma
  TGI: 11.8 µM
SN12C renal
  TGI: 46.5 µM
SNB-19 CNS
  TGI: 45.3 µM
SNB-75 CNS
  TGI: 23.2 µM
SNB-78 CNS
  TGI: > 100 µM
SR leukemia
  TGI: 4.95 µM
SW-620 colon
  TGI: 33.8 µM
TK-10 renal
  TGI: 35.4 µM
U251 CNS
  TGI: 21.7 µM
UACC-257 melanoma
  TGI: 10.9 µM
UACC-62 melanoma
  TGI: 30.5 µM
UO-31 renal
  TGI: 30.1 µM
XF 498 CNS
  TGI: 23.8 µM

## O=NN1CCN=C1c1ccc([N+](=O)[O-])cc1
786-0 renal
  TGI: > 100 µM
A549 NSCLC
  TGI: > 100 µM
ACHN renal
  TGI: > 100 µM
CAKI-1 renal
  TGI: > 100 µM
COLO 205 colon
  TGI: > 100 µM
DLD-1 colon
  TGI: > 100 µM
DMS 273 small cell lung
  TGI: > 100 µM
HCC-2998 colon
  TGI: > 100 µM
HCT-116 colon
  TGI: > 100 µM
HCT-15 colon
  TGI: > 100 µM
HL-60(TB) leukemia
  TGI: > 100 µM
HOP-62 NSCLC
  TGI: > 100 µM
HOP-92 NSCLC
  TGI: > 100 µM
HT29 colon
  TGI: > 100 µM
IGROV1 ovarian
  TGI: > 100 µM
K-562 leukemia
  TGI: > 100 µM
KM12 colon
  TGI: > 100 µM
KM20L2 colon
  TGI: > 100 µM
LOX IMVI melanoma
  TGI: > 100 µM
LXFL 529 NSCLC
  TGI: > 100 µM
M14 melanoma
  TGI: > 100 µM
M19-MEL melanoma
  TGI: > 100 µM
MALME-3M melanoma
  TGI: > 100 µM
MOLT-4 leukemia
  TGI: > 100 µM
NCI-H226 lung
  TGI: > 100 µM
NCI-H23 lung
  TGI: > 100 µM
NCI-H460 lung
  TGI: > 100 µM
NCI-H522 lung
  TGI: > 100 µM
OVCAR-3 ovarian
  TGI: > 100 µM
OVCAR-4 ovarian
  TGI: > 100 µM
OVCAR-5 ovarian
  TGI: > 100 µM
OVCAR-8 ovarian
  TGI: > 100 µM
RPMI-8226 leukemia
  TGI: > 100 µM
RXF 393 renal
  TGI: > 100 µM
SF-268 CNS
  TGI: > 100 µM
SF-295 CNS
  TGI: > 100 µM
SF-539 CNS
  TGI: > 100 µM
SK-MEL-28 melanoma
  TGI: > 100 µM
SK-MEL-5 melanoma
  TGI: > 100 µM
SK-OV-3 ovarian
  TGI: > 100 µM
SN12C renal
  TGI: > 100 µM
SNB-19 CNS
  TGI: > 100 µM
SNB-75 CNS
  TGI: > 100 µM
SNB-78 CNS
  TGI: > 100 µM
SR leukemia
  TGI: > 100 µM
SW-620 colon
  TGI: > 100 µM
TK-10 renal
  TGI: > 100 µM
U251 CNS
  TGI: > 100 µM
UACC-257 melanoma
  TGI: > 100 µM
UACC-62 melanoma
  TGI: > 100 µM
UO-31 renal
  TGI: > 100 µM
XF 498 CNS
  TGI: > 100 µM
